The source of these data is patent EP2848929A1, “Graphene FET-based biosensor” (AIT Austrian Institute of Technology GmbH, priority 2013, dated 2015).

In assay [1] the target is T1, OBP14 (Apis mellifera, UniProt A0A8U0WQC3). Briefly: biochemical. The format is binding, honeybees. Conditions: for binding to OBP14 (in words): qualitative ranking from biosensor results; for kon: read-out: [kon] / M^-1s^-1.
In assay [2] the target is T1, OBP14. The note with it: fluorescent displacement assays, literature; cited from earlier work.
Where [3] appears, read: 10^- 6[KD] /M, Table 1, KD = 1/KA from titration, Langmuir model, 1mM PBS, pH = 8.0.
Setting [4] is: 10^-6 [KD] /M, Table 2, KD = 1/KA from titration, Langmuir model fit.
The mark [5] stands for this setting: KD, from Langmuir isotherm plot, half saturation concentration (50% surface coverage).
The mark [6] stands for this setting: KD, from the kinetic measurement (titration fitted with Langmuir model).
Where [7] appears, read: Table 1, affinity constant KA = kon/koff from titration, Langmuir model, 1mM PBS, pH = 8.0.
[8] abbreviates: Table 2, affinity constant KA = kon/koff from titration, Langmuir model fit.
The mark [9] stands for this setting: dissociation constant of KD, control experiment, eugenol and methyl eugenol on the same sensor device.
Where [10] appears, read: 10^2 [KA] /M^-1, Table 2, affinity constant KA = kon/koff from titration, Langmuir model fit.
[11] abbreviates: Table 2, association rate constant from titration fit.
Where [12] appears, read: Table 2, dissociation rate constant from final buffer wash fit, read-out: [ koff] / s^-1.

Where two headings read alike, the source gives them in different places.

T1 sequence (A0A8U0WQC3 entry or part of it): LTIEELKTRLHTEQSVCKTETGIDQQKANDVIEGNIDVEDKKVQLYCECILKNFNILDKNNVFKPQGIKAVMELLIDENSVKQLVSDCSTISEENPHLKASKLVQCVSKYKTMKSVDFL

Consider `C=CCc1ccc(O)c(OC)c1` [Eugenol, 4-Allyl-2-methoxyphenol], for which the koff at OBP14 [1], on OBP14 [1] (read-out: [ koff] / s^-1) and at OBP14 [1] (read-out: [koff] /s ^-1) was 0.003 s⁻¹ throughout. For the same compound, the “real-time response (ΔIDS) of the biosensor” value on OBP14 [1] (5 µM eugenol solution compared with a 10 fold higher concentrated methyl eugenol solution, same sensor device) is given as “significantly higher”. Moreover, the Kd on OBP14 [1] (setting [3]) was found to be 9.2 ± 0.7 µM; on OBP14 [1] (setting [4]), 9.2 ± 0.7 µM; on OBP14 [1] (setting [5]) it was 1.9 µM; at OBP14 [1] (setting [6]) it was 9.2 µM; on OBP14 [1] (setting [9]), 19 µM. The “10^2 [KA] /M^-1” value on OBP14 [1] (setting [7]) and at OBP14 [1] (setting [8]) was 1087 ± 91 10^2 M^-1 throughout. Further, the “binding to OBP14 (in words)” value at OBP14 [1] was “high affinity”. Also, the kon at OBP14 [1] amounted to 326 ± 27 M⁻¹ s⁻¹.

As for `COc1cc(C=O)ccc1O` [Vanillin, 4-Hydroxy-3-methoxybenzaldehyd], the Kd at OBP14 [1] (setting [10]) is 20.7 µM; at OBP14 [1] (setting [4]), 23.8 ± 6 µM. Further, the kon on OBP14 [1] (setting [11]) turned out to be 191 ± 111 M⁻¹ s⁻¹. Further, on OBP14 [1] (setting [12]), the koff worked out at 0.0038 s⁻¹.

Consider `COc1cc(CC(=O)O)ccc1O` [Homovanillic acid, 2-(4-Hydroxy-3-methoxy-phenyl)acetic acid], for which the Kd on OBP14 [1] (setting [3]) was 6.5 ± 0.7 µM. In addition, the “10^2 [KA] /M^-1” value at OBP14 [1] (setting [7]) is 1540 ± 140 10^2 M^-1. The koff at OBP14 [1] (read-out: [koff] /s ^-1) is 0.0078 s⁻¹. Also, at OBP14 [2], the “affinity to OBP14 (in words)” value is listed as “did not show good affinity”.

For the compound `CC(=O)OCCC(C)C` [Isoamyl acetate, 3-methylbutyl acetate], the Kd on OBP14 [1] (Table 1, KD = 1/KA from titration, Langmuir model, 1mM PBS, pH = 8.0, read-out: 10^- 6[KD] /M) came to 814 ± 58 µM. Also, at OBP14 [1] (setting [7]), the “10^2 [KA] /M^-1” value was 12.33 ± 0.86 10^2 M^-1. Moreover, at OBP14 [1] (Table 1, association rate constant from titration fit), the “[kon] /M^1s^-1” value is 8.3 ± 0.6 M^1s^-1. Besides, the koff on OBP14 [1] (Table 1, dissociation rate constant from final buffer wash fit, read-out: [koff] /s ^-1) is 0.0068 s⁻¹. Besides, the “binding to OBP14 (in words)” value at OBP14 [1] was “behave poorly”.

In the case of `COC(=O)c1ccc(O)c(OC)c1` [Methyl vanillate, Methyl 4-hydroxy-3-methoxybenzoate], the Kd on OBP14 [1] (Table 2, KD = 1/KA from titration, Langmuir model fit, read-out: 10^-6 [KD] /M) turned out to be 22 ± 4.5 µM; at OBP14 [1] (from Langmuir isotherm of change in drain current ΔIDS vs odorant concentration [Od] (Fig. 1D), read-out: KD), 10 µM; on OBP14 [1] (from Langmuir isotherm plot, half saturation concentration (50% surface coverage), read-out: KD), 24 µM; on OBP14 [1] (from linear relationship between reaction rate constant k and odorant concentration (Fig. 1B), read-out: KD), 30 µM; on OBP14 [1] (from the kinetic measurement (titration fitted with Langmuir model), read-out: KD) it was 22 µM. Moreover, the “10^2 [KA] /M^-1” value at OBP14 [1] (setting [8]) was 479 ± 136 10^2 M^-1. The kon at OBP14 [1] (setting [11]) worked out at 239 ± 68 M⁻¹ s⁻¹. Moreover, at OBP14 [1] (setting [12]), the koff worked out at 0.005 s⁻¹.

For `COc1cc(/C=C/C=O)ccc1O` [Coniferyl aldehyde, (E)-3-(4-hydroxy-3-methoxyphenyl) prop-2-enal], the Kd at OBP14 [1] (setting [10]) is 8.06 µM; on OBP14 [1] (setting [4]), 9.1 ± 2.3 µM. Besides, the koff at OBP14 [1] (read-out: [ koff] / s^-1) was found to be 0.003 s⁻¹. On OBP14 [1], the kon came out at 370 ± 190 M⁻¹ s⁻¹. In addition, the “affinity to OBP14 (in words)” value on OBP14 [2] is recorded as “did not show good affinity”.

`CC(C)=CCC/C(C)=C/CO` [Geraniol, (2E)-3,7-Dimethylocta-2,6-dien-1-ol]: at OBP14 [1] (setting [3]), the Kd was determined as 1120 ± 5 µM. For the same compound, the “10^2 [KA] /M^-1” value on OBP14 [1] (setting [7]) is on record as 8.96 ± 0.04 10^2 M^-1. Besides, at OBP14 [1], the “binding to OBP14 (in words)” value is recorded as “moderate or weak binders”. Besides, the koff at OBP14 [1] (read-out: [koff] /s ^-1) worked out at 0.0077 s⁻¹.

Regarding `CC(C)=CCCC(C)=CC=O` (mixture of isomers) [Citral, (2E)-3,7-dimethylocta-2,6-dienal], the Kd is 589.2 ± 0.6 µM on OBP14 [1] (setting [3]), 550 µM on OBP14 [1] (setting [5]) and 590 µM at OBP14 [1] (setting [6]). Besides, the “10^2 [KA] /M^-1” value at OBP14 [1] (setting [7]) was 16.97 ± 0.02 10^2 M^-1. Also, the “binding to OBP14 (in words)” value at OBP14 [1] is “moderate or weak binders”. The koff at OBP14 [1] (read-out: [koff] /s ^-1) was 0.0035 s⁻¹.

Consider `CC(=O)CCC=C(C)C` [Sulcatone, 6-Methylhept-5-en-2-one], for which the Kd is 1410 ± 21 µM at OBP14 [1] (setting [3]), 1500 µM at OBP14 [1] (setting [5]) and 1400 µM at OBP14 [1] (setting [6]). Further, on OBP14 [1] (setting [7]), the “10^2 [KA] /M^-1” value is given as 7.07 ± 0.11 10^2 M^-1. Besides, the “binding to OBP14 (in words)” value at OBP14 [1] is on record as “behave poorly”. The koff on OBP14 [1] (read-out: [koff] /s ^-1) turned out to be 0.0074 s⁻¹.

`C=CCc1ccc(OC)c(OC)c1` [Methyl eugenol, 1,2-Dimethoxy-4-prop-2-enylbenzene]: the Kd was determined as 520 ± 0.1 µM on OBP14 [1] (setting [4]) and 590 µM on OBP14 [1] (setting [9]). In addition, the “10^2 [KA] /M^-1” value at OBP14 [1] (setting [8]) was 19.23 ± 0.03 10^2 M^-1. Further, the kon on OBP14 [1] (setting [11]) came to 8.92 ± 0.01 M⁻¹ s⁻¹. Moreover, at OBP14 [1] (setting [12]), the koff worked out at 0.0046 s⁻¹. The “concentration at which equilibrium was achieved, relative to the other odorants” value at OBP14 [1] (titration curves Fig. 3, compared with three ligands with phenolic based structure) was “about 10 fold”.

`COc1cc(CCC(C)=O)ccc1O` [Vanillyl acetone, 4-(4-hydroxy-3-methoxyphenyl)butan-2-one]: the “10^2 [KA] /M^-1” value on OBP14 [1] (setting [8]) is 409.7 ± 0.3 10^2 M^-1. Besides, the Kd on OBP14 [1] (read-out: 10^-6 [KD] /M) was determined as 24.4 ± 0.02 µM. Further, at OBP14 [1] (read-out: [ koff] / s^-1), the koff worked out at 0.007 s⁻¹. The kon at OBP14 [1] stood at 286.8 ± 0.2 M⁻¹ s⁻¹.
